For 2 compounds, IC50 results are on record in patent US10329352B2, “Pyrrolobenzodiazepines and targeted conjugates” (priority 2011, dated 2019).

Assay in all cases: Free drug in vitro cytotoxicity (resazurin)
Common to all, as to format: cell-based
In general terms: The colour change of resazurin is a common sign of viable cells or microbes.

The subject of one test is 786-O. How it is done:
(§1) Cells as detailed below were collected and plated in 96 well black-sided plates at a density of 10,000 cells/well in 150 μL of medium. […] Resazurin (0.25 mM, 50 μL, Sigma, St. Louis, Mo.) in medium was added and incubation was continued for 4 hours. The plates were read on a Fusion HT microplate reader (Packard, Meriden, Conn.) using an excitation wavelength of 525 nm and an emission wavelength of 590 nm. Data from all assays were reduced using GraphPad Prism Version 4 for Windows (GraphPad Software, San Diego, Calif.). The IC50 concentrations compared to untreated control cells were determined using a 4 parameter curve fits.

The subject of the next test is Caki-1. On the procedure:
as §1

The subject of a further test is HEL9217. How it is done: as §1
The next test relates to HL60. How it is done: as §1

`COC(=O)c1ccc(C2=CN3C(=O)c4cc(OC)c(OCCCCCOc5cc6c(cc5OC)C(=O)N5C=C(c7ccc(N)cc7)C[C@H]5C=N6)cc4N=C[C@@H]3C2)cc1` [compound 4, (S)-2-(4-aminophenyl)-7-methoxy-8-(5-((S)-7-methoxy-2-(4-methyloxycarbonylphenyl)-5-oxo-5,11a-dihydro-1H-pyrrolo[2,1-c][1,4]benzodiazepin-8-yloxy)pentyloxy)-1H-pyrrolo[2,1-c][1,4]benzodiazepine-5(11aH)-one]: the IC50 (commonly the concentration at which inhibition is half-maximal) in the test with 786-O (Homo sapiens, 786-0, following 48 hours treatment) was determined as 0.05 nM; with Caki-1 (Homo sapiens, CAKI-1, following 48 hours treatment), 0.02 nM; in the test with HEL9217 (Homo sapiens, HEL 92.1.7, following 48 hours treatment) it was 0.008 nM; in the test on HL60 (Homo sapiens, HL-60, following 48 hours treatment), 0.008 nM.
As for `COc1cc2c(cc1OCCCOc1cc3c(cc1OC)C(=O)N1C=C(c4ccc(O)cc4)C[C@H]1C=N3)N=C[C@@H]1CC(c3ccc(N)cc3)=CN1C2=O` [compound 14], the concentration for half-maximal inhibition (IC50) with 786-O (following 48 hours treatment) was 0.2 nM; with Caki-1 (following 48 hours treatment) it was 0.4 nM; with HEL9217 (following 48 hours treatment), 0.05 nM; in the test with HL60 (following 48 hours treatment), 0.03 nM.
